Assay results taken from US11046699B2, “Pyrazolo-pyrimidin-amino-cycloalkyl compounds and their therapeutic uses” (RAPT THERAPEUTICS, INC., priority 2018, dated 2021).
Read-outs that look alike come from different tables or passages of the source.

Target: GCN2 (Homo sapiens, UniProt Q9P2K8)
Experiment: GCN2 enzymatic endpoint assay: phosphorylation of GFP-eIF2α measured by TR-FRET (Lanthascreen)
Type: biochemical
Method: The Enzymatic assay was run as an endpoint assay to quantify the activity of the serine/threonine GCN2 kinase by way of measuring phosphorylation of its natural substrate, eiF2α.
The enzymatic reaction was initiated by incubating with 2 μM ATP and 80 nM of GFP labeled eiF2a substrate at room temperature and then stopped after 90 minutes with EDTA. The amount of phosphorylated eIF2α is determined by TR-FRET (Lanthascreen). A terbium labeled antibody associates with the phosphorylated substrate resulting in an increased TR-FRET value. Activity was calculated as the ratio of the acceptor (fluorescein) signal at 520 nm wavelength to the donor (terbium) signal 495 nm. The amount of antibody that is bound to the tracer is directly proportional to the amount of phosphorylated substrate present, and in this manner, kinase activity can be detected and measured by an increase in the TR-FRET value.
Compound addition by D300
5 μL enzyme solution in assay buffer
5 μL substrate/ATP mixture in assay buffer
5 μL stop/detection mix in antibody dilution buffer

[1] = tested as described in Example 77, compound and/or hydrochloride, dihydrochloride or trifluoroacetic acid salt, read-out: IC 50 Activity
[2] = GCN2 biochemical IC50, 4 nM GCN2, 2 μM ATP, 80 nM GFP-eIF2α, 90 min RT, read-out: GCN2 activity

Chain of GCN2 (Q9P2K8 whole entry): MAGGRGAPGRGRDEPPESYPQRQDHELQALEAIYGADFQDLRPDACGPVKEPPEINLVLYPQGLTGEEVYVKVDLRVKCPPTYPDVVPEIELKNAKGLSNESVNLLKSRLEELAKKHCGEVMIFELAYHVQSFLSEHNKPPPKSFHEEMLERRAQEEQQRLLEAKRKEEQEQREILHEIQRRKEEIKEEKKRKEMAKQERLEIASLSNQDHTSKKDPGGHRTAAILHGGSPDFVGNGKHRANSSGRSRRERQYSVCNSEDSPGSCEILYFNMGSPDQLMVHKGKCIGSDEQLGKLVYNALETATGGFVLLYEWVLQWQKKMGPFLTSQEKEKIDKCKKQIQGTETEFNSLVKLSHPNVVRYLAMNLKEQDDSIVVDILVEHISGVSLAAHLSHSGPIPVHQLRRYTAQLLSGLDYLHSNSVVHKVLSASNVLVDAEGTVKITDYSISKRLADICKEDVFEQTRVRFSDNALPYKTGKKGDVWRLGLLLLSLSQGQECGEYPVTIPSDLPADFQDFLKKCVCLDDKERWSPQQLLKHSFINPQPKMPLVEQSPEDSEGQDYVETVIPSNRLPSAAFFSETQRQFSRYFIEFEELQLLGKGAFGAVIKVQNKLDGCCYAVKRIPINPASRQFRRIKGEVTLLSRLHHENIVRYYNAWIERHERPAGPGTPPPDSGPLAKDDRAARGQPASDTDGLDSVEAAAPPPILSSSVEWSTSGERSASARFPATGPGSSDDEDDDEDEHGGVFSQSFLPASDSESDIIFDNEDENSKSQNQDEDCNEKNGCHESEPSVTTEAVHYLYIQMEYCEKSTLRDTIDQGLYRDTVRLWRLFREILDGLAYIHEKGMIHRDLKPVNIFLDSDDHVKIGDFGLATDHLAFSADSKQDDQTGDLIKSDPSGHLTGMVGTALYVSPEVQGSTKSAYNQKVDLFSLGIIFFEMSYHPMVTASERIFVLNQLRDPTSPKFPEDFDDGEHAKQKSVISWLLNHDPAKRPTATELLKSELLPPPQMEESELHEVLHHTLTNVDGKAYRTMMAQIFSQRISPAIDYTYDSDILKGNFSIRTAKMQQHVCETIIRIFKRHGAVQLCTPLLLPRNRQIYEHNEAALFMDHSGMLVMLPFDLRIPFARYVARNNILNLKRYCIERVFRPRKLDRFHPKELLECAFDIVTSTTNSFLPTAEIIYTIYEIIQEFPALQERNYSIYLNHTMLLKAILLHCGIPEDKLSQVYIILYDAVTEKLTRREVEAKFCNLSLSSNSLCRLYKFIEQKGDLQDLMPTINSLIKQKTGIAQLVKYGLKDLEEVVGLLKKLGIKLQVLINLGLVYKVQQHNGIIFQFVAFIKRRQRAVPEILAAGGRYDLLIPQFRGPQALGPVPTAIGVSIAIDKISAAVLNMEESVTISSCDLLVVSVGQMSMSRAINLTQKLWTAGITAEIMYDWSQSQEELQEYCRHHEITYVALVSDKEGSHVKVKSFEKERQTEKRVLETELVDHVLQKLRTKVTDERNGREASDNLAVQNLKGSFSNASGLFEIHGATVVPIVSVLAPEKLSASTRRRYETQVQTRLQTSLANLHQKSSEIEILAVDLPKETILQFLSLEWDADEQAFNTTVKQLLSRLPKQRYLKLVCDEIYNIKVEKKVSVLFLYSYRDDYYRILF

| Structure (SMILES) | IC50 [1] | IC50 [2] |
| --- | --- | --- |
| COCCNC(=O)[C@@H]1CC[C@@H](Nc2ncc3c(Br)nn(-c4ccc(-c5ccncc5)cc4)c3n2)C1 [(1R,3R)-3-((3-bromo-1-(4-(pyridin-4-yl)phenyl)-1H-pyrazolo[3,4-d]pyrimidin-6-yl)amino)-N-(2-methoxyethyl)cyclopentane-1-carboxamide] | 0.5 to 1 µM | – |
| CC(CNC(=O)[C@@H]1CC[C@@H](Nc2ncc3c(Br)nn(-c4ccc5ncccc5c4)c3n2)C1)N1CCCC1 (stereo partly drawn) [(1R,3R)-3-((3-bromo-1-(quinolin-6-yl)-1H-pyrazolo[3,4-d]pyrimidin-6-yl)amino)-N-(2-(pyrrolidin-1-yl)propyl)cyclopentane-1-carboxamide] | 0.025 to 0.2 µM | – |
| Cc1nnc(-c2ccc(-n3nc(Br)c4cnc(NC5CCC(CN(C)C)(C(=O)O)C5)nc43)cc2)s1 (centres unmarked) | 0.025 to 0.2 µM | – |
| CNC(=O)[C@]1(C)CC[C@@H](Nc2ncc3c(Br)nn(-c4ccc5nccc(P(C)(C)=O)c5c4)c3n2)C1 [(1R,3R)-3-[[3-bromo-1-(4-dimethyl-phosphoryl-6-quinolyl)pyrazolo[3,4-d]pyrimidin-6-yl]amino]-N,1-dimethyl-cyclopentanecarboxamide] | 0.025 to 0.2 µM | – |
| CS(=O)(=O)N[C@@H]1CCC(Nc2ncc3c(Br)nn(-c4ccc5ncccc5c4)c3n2)C1 (mixture of isomers) [Example 15, N-(trans-3-((3-bromo-1-(quinolin-6-yl)-1H-pyrazolo[3,4-d]pyrimidin-6-yl)amino)cyclopentyl)methanesulfonamide] | – | 0.2 to 0.5 µM |
| CNC(=O)[C@]1(C)CC[C@@H](Nc2ncc3c(Br)nn(-c4ccc5ncc(CNCCC#N)cc5c4)c3n2)C1 [(1R,3R)-3-[[3-bromo-1-[3-[(2-cyanoethyl-amino)methyl]-6-quinolyl]pyrazolo[3,4-d]pyrimidin-6-yl]amino]-N,1-dimethyl-cyclo-pentanecarboxamide] | 0.025 to 0.2 µM | – |
| CNC(=O)[C@]1(COC)CC[C@@H](Nc2ncc3c(Br)nn(-c4cc(F)c5ncccc5c4)c3n2)C1 [(1R,3R)-3-[[3-bromo-1-(8-fluoro-6-quinolyl)pyrazolo[3,4-d]pyrimidin-6-yl]amino]-1-(methoxymethyl)-N-methyl-cyclopentane-carboxamide] | < 0.025 µM | – |
| CN1CN(C(=O)[C@@H]2CC[C@@H](Nc3ncc4c(Br)nn(-c5cc(C#N)c6ncccc6c5)c4n3)C2)CC1=O [6-(3-bromo-6-(((1R,3R)-3-(3-methyl-4-oxo-imidazolidine-1-carbonyl)cyclopentyl)amino)-1H-pyrazolo[3,4-d]pyrimidin-1-yl) quinoline-8-carbonitrile] | 0.025 to 0.2 µM | – |
| CNC(=O)[C@]1(C)CC[C@@H](Nc2ncc3c(Br)nn(-c4ccc5c(c4)C(C)(C)CO5)c3n2)C1 [(1R,3R)-3-[[3-bromo-1-(3,3-dimethyl-2H-benzofuran-5-yl)pyrazolo[3,4-d]pyrimidin-6-yl]amino]-N,1-dimethyl-cyclopentane-carboxamide] | 0.025 to 0.2 µM | – |
| CNC(=O)[C@]1(C)CC[C@@H](Nc2ncc3c(Br)nn(-c4ccc(-c5ncco5)c(CCN(C)C)c4)c3n2)C1 [Example 62, (1R,3R)-3-((3-bromo-1-(3-(2-(dimethylamino)ethyl)-4-(oxazol-2-yl)phenyl)-1H-pyrazolo[3,4-d]pyrimidin-6-yl)amino)-N,1-dimethylcyclopentane-1-carboxamide; 2,2,2-trifluoroacetic acid] | – | 0.025 to 0.2 µM |
| CNC(=O)[C@]1(C)CC[C@@H](Nc2ncc3c(Br)nn(-c4ccc5c(c4)CCNC5=O)c3n2)C1 [(1R,3R)-3-[[3-bromo-1-(1-oxo-3,4-dihydro-2H-isoquinolin-6-yl)pyrazolo[3,4-d]pyrimidin-6-yl]amino]-N,1-dimethyl-cyclopentanecarboxamide] | 0.025 to 0.2 µM | – |
| COCCN1CN(C(=O)C2(C)CC[C@@H](Nc3ncc4c(Br)nn(-c5cc(F)c6ncccc6c5)c4n3)C2)CC1=O (stereo partly drawn) [1-[(3R)-3-[[3-bromo-1-(8-fluoro-6-quinolyl)pyrazolo[3,4-d]pyrimidin-6-yl]amino]-1-methyl-cyclopentanecarbonyl]-3-(2-methoxyethyl)imidazolidin-4-one] | < 0.025 µM | – |
| CS(=O)(=O)CCNC(=O)[C@@H]1CC[C@@H](Nc2ncc3c(Br)nn(-c4ccc5ncccc5c4)c3n2)C1 [(1R,3R)-3-((3-bromo-1-(quinolin-6-yl)-1H-pyrazolo[3,4-d]pyrimidin-6-yl)amino)-N-(2-(methylsulfonyl)ethyl)cyclopentane-1-carboxamide] | 0.2 to 0.5 µM | – |
| CC1(CNC(=O)[C@@H]2CC[C@@H](Nc3ncc4c(Br)nn(-c5cc(F)c6ncccc6c5)c4n3)C2)COC1 [(1R,3R)-3-((3-bromo-1-(8-fluoroquinolin-6-yl)-1H-pyrazolo[3,4-d]pyrimidin-6-yl)amino)-N-((3-methyloxetan-3-yl)methyl)cyclopentane-1-carboxamide] | 0.025 to 0.2 µM | – |
| CNC(=O)[C@]1(C)CC[C@@H](Nc2ncc3c(Br)nn(-c4ccc(C5=NCCO5)cc4)c3n2)C1 [(1R,3R)-3-[[3-bromo-1-[4-(4,5-dihydro-oxazol-2-yl)phenyl]pyrazolo[3,4-d]pyrimidin-6-yl]amino]-N,1-dimethyl-cyclopentanecarboxamide] | 0.025 to 0.2 µM | – |
| CNC(=O)[C@]1(C)CC[C@@H](Nc2ncc3c(Br)nn(-c4ccc(-c5nnc(C)s5)c(C#N)c4)c3n2)C1 [Example 69, (1R,3R)-3-((3-bromo-1-(3-cyano-4-(5-methyl-1,3,4-thiadiazol-2-yl)phenyl)-1H-pyrazolo[3,4-d]pyrimidin-6-yl)amino)-N,1-dimethylcyclopentane-1-carboxamide] | – | < 0.025 µM |
| CNC(=O)[C@]1(C)CC[C@@H](Nc2ncc3c(Br)nn(-c4ccc(-c5nnc(C)s5)c(CC(N)C(F)(F)F)c4)c3n2)C1 (stereo partly drawn) [(1R,3R)-3-[[1-[3-(2-amino-3,3,3-trifluoro-propyl)-4-(5-methyl-1,3,4-thiadiazol-2-yl)phenyl]-3-bromo-pyrazolo[3,4-d]pyrimidin-6-yl]amino]-N,1-dimethyl-cyclopentane-carboxamide] | 0.025 to 0.2 µM | – |
| CNC(=O)[C@]1(C)CC[C@@H](Nc2ncc3c(Br)nn(-c4cc([C@H](C)CO)c5ncccc5c4)c3n2)C1 [(1R,3R)-3-[[3-bromo-1-[8-[(1S)-2-hydroxy-1-methyl-ethyl]-6-quinolyl]pyrazolo[3,4-d]pyrimidin-6-yl]amino]-N,1-dimethyl-cyclopentanecarboxamide] | < 0.025 µM | – |
| O=C(Nc1cnn(C2CC2)c1)[C@@H]1CC[C@@H](Nc2ncc3c(Br)nn(-c4cc(F)c5ncccc5c4)c3n2)C1 [(1R,3R)-3-((3-bromo-1-(8-fluoroquinolin-6-yl)-1H-pyrazolo[3,4-d]pyrimidin-6-yl)amino)-N-(1-cyclopropyl-1H-pyrazol-4-yl)cyclopentane-1-carboxamide] | 0.2 to 0.5 µM | – |
| CC[C@H](N)c1cc(Cl)cc(-n2nc(Br)c3cnc(N[C@@H]4CC[C@@](C)(C(=O)NC)C4)nc32)c1 | 0.025 to 0.2 µM | – |
| CNC(=O)[C@]1(CC(F)(F)F)CC[C@@H](Nc2ncc3c(Br)nn(-c4cc(F)c5ncccc5c4)c3n2)C1 [(1R,3R)-3-[[3-bromo-1-(8-fluoro-6-quinolyl)pyrazolo[3,4-d]pyrimidin-6-yl]amino]-N-methyl-1-(2,2,2-trifluoroethyl)cyclopentane-carboxamide] | < 0.025 µM | – |
| O=C(NC1CCS(=O)(=O)CC1)[C@@H]1CC[C@@H](Nc2ncc3c(Br)nn(-c4ccc(-c5cccnc5)cc4)c3n2)C1 | 0.2 to 0.5 µM | – |
| Cc1nnc(-c2ccc(-n3nc(Br)c4cnc(N[C@@H]5CC[C@@](C)(C#N)C5)nc43)cc2)s1 | 0.025 to 0.2 µM | – |
